In US7989466B2, “Methods to inhibit or augment an inflammatory response” (Cambridge Enterprise Limited, priority 1999, dated 2011):
Like-named read-outs stand apart in the source and are kept apart here. Positions of bridges follow the written chain, without caps; N, C: chain ends. Non-standard residues stand in square brackets, D forms with d. Residues, ends and D or L forms follow the SMILES beside them. No end group written: not given here.

What was measured:
[1] = tested on: antigen specific antibody recall response; test: Cynomolgus monkeys immunized with scFv antigen; format: in vivo; conditions: single dose 50 mg/kg i.v.
Experimental: Cynomolgus monkeys were immunized with antigen that is a single chain Fv (scFv) protein. Each animal previously received 3 i.v. injections of the antigen and all developed high serum titers. Five animals were randomly divided into 2 groups. Two animals served as PBS treated controls and 3 were treated i.v. with 50 mg/kg CRD-Leu4Ile11Cys13 peptide 3(3-12)[MCP-1]. Thirty minutes following CRD-Leu4Ile11Cys13 peptide 3(3-12)[MCP-1] treatment all animals were challenged i.v. with 3.5 mg/kg antigen. In addition, animals were challenged intradermal with each of the following in a volume of 50 μl:PBS; 50 μg antigen; 5 μg antigen; 0.5 μg antigen; 500 ng MCP-1; or 50 ng LPS. Serum was collected at 10 minutes, 30 minutes, 60 minutes, 4 hours, and 24 hours. Animals were sacrificed 24 hours after CRD-Leu4Ile11Cys13 peptide 3(3-12)[MCP-1] injection and complete necropsy performed and tissues fixed for histopathology. Fixed and frozen skin samples were harvested for histopathology and immunohistochemistry. […] Blood was also analyzed pre- and post-CRD-Leu4Ile11Cys13 peptide 3(3-12)[MCP-1] injection for hematology parameters and serum chemistry. Serum levels were evaluated by an LC-MS method (limit of quantitation=1 μg/ml) pre-treatment and then at 10 minutes, 30 minutes, 60 minutes, 4 hours and 20-24 hours after injection. […]

[2] = Mouse LD50 (modified LD50 technique); format: in vivo; conditions: for LD50: IV
[3] = Plasma concentration after a single intraperitoneal dose; format: in vivo; conditions: ip, 24 hours after a single intraperitoneal dose of 1 mg in 250 μL saline
Experimental: For example, to prepare a peptide 3 derivative, peptide 3(3-12)[MCP-1] was modified according to Jameson et al. (Nature, 368, 744 (1994)), which yielded CRD-Cys13Leu4Ile11peptide 3(3-12)[MCP-1] (FIG. 3). CRD-Cys13Leu4Ile11peptide 3(3-12)[MCP-1], which had very similar properties to peptide 3(1-12)[MCP-1] […] CRD-Cys13Leu4Ile11peptide 3(3-12)[MCP-1] was also resistant to hydrolysis in vivo and allowed therapeutically useful plasma concentrations to be achieved (>10 μM 24 hours after a single intraperitoneal dose of 1 mg of CRD-Cys13Leu4Ile11peptide 3(3-12)[MCP-1] in 250 μL saline).

HIV (IIIb), T-tropic = conditions: 100 μM peptide; for effect on HIV infection / replication in Jurkat cells, in words: reverse transcriptase assay; for inhibition of reverse transcriptase activity: Jurkat cells, HIV IIIb
[4] = tested on: MIP1α induced human monocyte migration; test: Human monocyte migration, MIP1α; format: cell-based; conditions: n.s. = no statistically significant inhibition
Experimental: Agents may also be screened in a chemotactic assay which employs human neutrophils, eosinophils, mast cells, basophils, platelets, lymphocytes or monocytes. For monocytes, 9 mls of fresh blood are transferred to a tube containing 1 ml of 3.8% sodium citrate, and left at room temperature for 15 minutes. Five mls of this anti-coagulated blood are carefully layered over 3.5 ml Polymorphprep® (Nycomed Pharma, Oslo), and centrifuged at 500 g for 35 minutes per the manufacturer's instructions. The top band at the sample/medium interface contains monocytes. The monocytes are carefully removed with a glass pipette, and reconstituted to the original volume (5 ml). The cells are washed with PBS plus 10% fetal calf serum, and centrifuged at 400 g for 10 minutes. The washing step is repeated three times before the cells are counted. Cells are resuspended at 1×10^7 cells/ml in RPMI-1640+10% fetal calf serum (FCS). The monocytes are cultured for two days at 37° C. in a humidified atmosphere of 5% CO2.
On day 2, the cells are counted, spun down, and reconstituted to 1×10^7 cells/ml in Gey's balanced salt solution+1 mg/ml bovine serum albumin (BSA). […]

gp120 = conditions: ns = not significantly different from control; >100 = ED50 not determined

Compound	antigen specific antibody response in splenocyte, lymph node and PBL recall responses [1]	lethality after intraperitoneal administration ([2]; 11 mg i.p.)	LD50 [2]	LD50 ([2]; in vivo, read-out: LD50)	level at time molar at 24 h [3]	effect on HIV infection / replication in Jurkat cells, in words (HIV (IIIb), T-tropic; listed as Peptide 3(1-12)[MCP-1])	effect on HIV infection / replication in Jurkat cells, in words (HIV (IIIb), T-tropic; listed as peptide 3)	% inhibition at 100 μM versus MIP1α, human monocyte migration [4]	gp120 ED-50 (gp120)	inhibition of reverse transcriptase activity (HIV (IIIb), T-tropic)	inhibition of reverse transcriptase activity (HIV (IIIb), T-tropic; listed as Peptide 2)	inhibition of reverse transcriptase activity (HIV (IIIb), T-tropic; listed as peptide 2)	effect on HIV infection / replication in Jurkat cells, in words (HIV (IIIb), T-tropic)
CC[C@@H](C)[C@H]1NC(=O)[C@@H](CCC(N)=O)NC(=O)[C@H](N)CSSC[C@H](C(N)=O)NC(=O)[C@@H](CC(C)C)NC(=O)[C@@H](CC(=O)O)NC(=O)[C@H]2CCCN2C(=O)[C@@H](CCCCN)NC(=O)[C@@H](CCC(N)=O)NC(=O)[C@@H](CCCCN)NC(=O)[C@@H](Cc2c[nH]c3ccccc23)NC1=O (H-[dC][dQ][dI][dW][dK][dQ][dK][dP][dD][dL][dC]-NH2; disulfide 1-11; N-terminus assumed)	reduced antigen specific antibody response	did not result in lethality	11.4 mg/mouse	569 mg/kg	> 10 µM	–	–	–	–	–	–	–	–
EICADPKQKWVQ [peptide 3(1-12)[MCP-1]]	–	–	–	–	–	effective inhibitor of Jurkat cell infection by HIV	but not peptide 3 (100 μM) markedly inhibited virus replication	120%	–	–	–	–	–
SYRRITSSKCPKEAV [peptide 2(1-15)[MCP-1]]	–	–	–	–	–	–	–	n.s.	0.4 µM	75±10%	75%	75%	more effective than peptide 3(1-12)[MCP-1] (SEQ ID NO:1), and as effective as SDF1α
